Source: patent publication US20090280167A1, “ENHANCEMENT OF DRUG THERAPY BY MIRNA” (Abraxis BioScience, LLC, priority 2008, published 2009)

What was measured:
Format in all cases: cell-based
HT29 colon cancer line = assay: miRNA library screen for enhancement of 17-AAG apoptotic activity (Apo-ONE caspase); settings: HT29, miRNA transfected 48 hours, then 17-AAG 48 hours, both 1:800 and 1:3200 dilutions of 17-AAG
Procedure: In order to observe an enhancement of activity in 17-AAG, a miRNA library of 470 Pre-miRNA precursors have been transfected (Ambion, siPORT NeoFx transfection agent) in to the HT29 colon cancer line and followed by 17-AAG treatment. Synthetic ds-miRNAs from the miRNA library were transfected into HT29 cells and incubated for 48 hours at 37° C. Various concentrations of 17-AAG were added to miRNA transfected HT29 cells and incubated for another 48 hours. 100 uL of media was aspirated from each well. Apo-One caspase reagent was prepared by diluting the substrate in buffer in a 1:100 concentration. 100 uL of the reagent was added to each well. Plates were incubated at room temperature for 6 hours. The apoptotic activity was measured by the Fluoroskan plate reader. […] Molecules that synergized at both 1:800 and 1:3200 dilutions of 17-AAG were miR-145, miR-454-3p, miR519a, miR-520c, and miR-520d (SEQ ID NOS:1-5), (FIG. 5, dark background, respectively).

HT29 cells [1] = assay: miRNA concentration dependency of 17-AAG synergy; settings: 17-AAG 3.125 ug/ml, miRNA 60, 30, 15, 7.5 nM
Procedure: To confirm the activity shown in Example 6, the experiment was repeated with constant amount of 17-AAG (3.125 ug/ml) and increasing amount of miRNAs (60, 30, 15, 7.5 nM) used for transfection. […] There were two distinct classes of miRNAs according to activity (one class with high activity: miR454 (SEQ ID NO:2), miR-520c (SEQ ID NO:4) and miR-520d (SEQ ID NO:5); one class with low activity: miR-145 (SEQ ID NO:1) and miR-519a (SEQ ID NO:3)).

HT29 cells [2] = assay: miRNA enhancement of oxaliplatin or paclitaxel apoptosis (Apo-ONE Caspase-3/7 Assay); settings: HT29, miRNA 30 nM 48 hours; for Level of apoptosis in oxaliplatin treated cells expressing exogenous miRNA: then 15.6 μg/ml oxaliplatin 48 hours; for Level of apoptosis in paclitaxel treated cells expressing exogenous miRNA: then 7.8 μg/ml paclitaxel 48 hours
Procedure: A transfection medium was made up by diluting siPORT NeoFx (0.3 μl/well) in OPTI-MEM (16.7 ul/well) in the wells of a microtiter plate and this medium was incubated for 10 minutes at room temperature. A pre-miRNA library was diluted to 1 μM and […] of miRNA was added to each well (30 nM). This mixture was incubated at room temperature for another 10 minutes. HT29 cells were then added at 30,000 cells/well and the plates were incubated 48 hours 37° C.
For treatment with candidate therapeutic agents, the media was aspirated from each well and 200 μl/well of 15.6 μg/ml oxaliplatin, 7.8 μg/ml paclitaxel or negative control solution was added. The plates were incubated for 48 hours 37° C. The Apo-ONE® Homogeneous Caspase-3/7 Assay (Promega, Madison, Wis., USA) was performed on the treated cells. The reactions were performed in duplicate.

Her2 [3] = assay: Her2 suppression assay (anti-Her2 immunostaining, absorbance at 405 nm); settings: BT474 cells, 24-hours treatment
Procedure: Ten thousand BT474 cells per well were seeded into a microtiter plate and grown for 48 hours. After this preincubation, the BT474 cells treated with various concentrations of 17-AAG and its analogs for 24-hours. At the end of this incubation the media was removed from each well, each well was washed twice with ice-cold Tris buffer saline (containing 0.1% Tween 20) and the cells were fixed with Methanol (ice-cold) at […] for 10 minutes. The fixed BT474 cells were immunostained with anti-Her2 antibody. The presence of Her2 protein was determined by measurement of the absorbance at 405 nm in the plate reader.

colon cancer line HT29 = assay: Apo-ONE Homogeneous Caspase-3/7 assay of 17-AAG apoptotic activity; settings: HT29 cells, 72 hours at 37° C., Caspase-3/7 activity
Description: The Apo-ONE® Homogeneous Caspase-3/7 Assay (Promega, Madison, Wis.) uses a proprietary lysis/activity buffer, in conjunction with the (Z-DEVD)2-Rhodamine 110 substrate, enables a simple “add-mix-read” format for the detection of caspase-3 and -7 in adherent, suspension, and primary culture cells, or in purified caspase preparations. The assay uses a rhodamine 110-based substrate allows for exquisite sensitivity previously unobtainable with conventional colorimetric or fluorometric assays.
Specifically, 100 μl of Apo-ONE® Caspase-3/7 Reagent was added to each well of a white or black 96-well plate containing 100 μl of blank, control or cells in culture. The plate was covered with a plate sealer for incubating for extended periods (>4 hours). In order to perform this assay in a 384-well plate, a 1:1 volume ratio of Apo-ONE® Caspase-3/7 Reagent to sample was used. The contents of wells were mixed using a plate shaker at 300-500 rpm from 30 seconds and incubated at room temperature for 6 hours. The fluorescence of each well was determined at 485/538 nm (a measure of apoptosis, with the higher ratio indicating more apoptosis).
The apoptotic activity of 17-AAG (17-(Allylamino)-17-demethoxygeldanamycin) was determined in the colon cancer line HT29 using an assay for Caspase-3/7 activity (Apo-ONE kit, Promega). 17-AAG-treated HT29 cells were compared with DMSO-treated control (FIG. 1). […]

Her2 [4] = assay: Confocal imaging of Her2 internalization and degradation; settings: BT474 cells, concentration of IC50, 24 hours, confocal image
Procedure: 17-AAG treated BT474 cells were examined by the confocal images system. BT474 cells were seeded on the slide and treated at the concentration of IC50 for 24 hours. 17AAG-treated and control BT474 cells were fixed with Methanol, stained with Her2 antibody and analyzed by the confocal image.

HT29 cells [5] = assay: Apoptotic activity of 17-AAG combined with anticancer agents (Apo-ONE kit); settings: three days after drug treatment
Procedure: A panel of anticancer chemotherapeutical agents was tested for the enhancement of apoptotic activity with 17-AAG (using the same apoptotic assay system in Example 1), FIG. 4. HT29 cells were treated with various concentration of 17-AGG in the presence or absence of anticancer agents including known HSP70 promoter inducers. Three days after the drug treatment, the apoptotic activity was measured by the Apo-ONE kit (see above). When combined with the anticancer agents, including HSP70 inducers (such as Cisplatin, Etoposide, Doxorubicin, Velcade, Dimethylenastron). […] Some inhibition was also observed for other inducers of HSP70.

Compound	Synergy with 17-AAG in apoptotic reading (HT29 colon cancer line)	Class of activity in synergy with 17-AAG (HT29 cells [1])	Level of apoptosis in paclitaxel treated cells expressing exogenous miRNA (HT29 cells [2])	other results
miR-145: miRNA GUCCAGUUUUCCCAGGAAUCCCUU (SEQ ID NO:1) (listed as RNA, chemistry not given here; listed as Homo sapiens)	synergized	low activity	–	–
miR-520c: miRNA AAAGUGCUUCCUUUUAGAGGGUU (SEQ ID NO:4) (listed as RNA, chemistry not given here; listed as Homo sapiens)	synergized	high activity	–	Level of apoptosis in oxaliplatin treated cells expressing exogenous miRNA (HT29 cells [2]): highest level of apoptosis
mir 661: miRNA UGCCUGGGUCUCUGGCCUGCGCGU (SEQ ID NO:9) (listed as RNA, chemistry not given here; listed as Homo sapiens)	–	–	highest levels of apoptosis	–
miR519a: miRNA AAAGUGCAUCCUUUUAGAGUGUUAC (SEQ ID NO:3) (listed as RNA, chemistry not given here; listed as Homo sapiens)	synergized	low activity	–	–
mir 572: miRNA GUCCGCUCGGCGGUGGCCCA (SEQ ID NO:8) (listed as RNA, chemistry not given here; listed as Homo sapiens)	–	–	highest levels of apoptosis	–
miR-454-3p: miRNA UAGUGCAAUAUUGCUUAUAGGGUUU (SEQ ID NO:2) (listed as RNA, chemistry not given here; listed as Homo sapiens)	synergized	high activity	–	Level of apoptosis in oxaliplatin treated cells expressing exogenous miRNA (HT29 cells [2]): highest level of apoptosis
C=CCNC1=C2C[C@@H](C)C[C@H](OC)[C@H](O)[C@@H](C)/C=C(\C)[C@H](OC(N)=O)[C@@H](OC)/C=C\C=C(/C)C(=O)NC(=CC1=O)C2=O [17-AAG, 17-(Allylamino)-17-demethoxygeldanamycin]	–	–	–	IC50 (Her2 [3]): ~32 nM; EC50 of apoptosis induction (colon cancer line HT29): 0.07 µg/mL; EC50 (colon cancer line HT29; read-out: EC50 of apoptosis induction): 120 nM; Her2 protein expression and localization after treatment (Her2 [4]): eliminated from its cell surface sub-localization to cytoplasm
mir 425-3p: miRNA AUCGGGAAUGUCGUGUCCGCC (SEQ ID NO:6) (AUCGGGAAUGUCGUGUCCGCCC; listed as RNA, chemistry not given here; listed as Homo sapiens)	–	–	highest levels of apoptosis	–
miR-520d: miRNA AAAGUGCUUCUCUUUGGUGGGUU (SEQ ID NO:5) (listed as RNA, chemistry not given here; listed as Homo sapiens)	synergized	high activity	–	Level of apoptosis in oxaliplatin treated cells expressing exogenous miRNA (HT29 cells [2]): highest level of apoptosis
CC(C)C[C@H](NC(=O)[C@H](Cc1ccccc1)NC(=O)c1cnccn1)B(O)O [Velcade]	–	–	–	Effect of the added anticancer agent on apoptotic activity of 17-AAG (HT29 cells [5]): strongly inhibited
mir 495: miRNA AAACAAACAUGGUGCACUUCUUU (SEQ ID NO:7) (listed as RNA, chemistry not given here; listed as Homo sapiens)	–	–	highest levels of apoptosis	–
